# Measured values from US11241441B2, “Formulations of lixivaptan for the treatment of polycystic disease” (PALLADIO BIOSCIENCES, INC., priority 2017, dated 2022).
# Experiments:
# [1] = molecular target: V2 receptor (Homo sapiens, UniProt P30518); test: Single 100 mg oral dose study in ESRD and normal renal function subjects: pharmacodynamics (urine osmolality, vasopressin, urine output); format: in vivo; parameters: Lixivaptan antagonizes the effects of vasopressin that are mediated by the V2 receptor; from tissue; host or cells: living human subjects (in vivo clinical studies); the receptor is the subjects' own and no tissue was isolated
# Protocol: In this study, the PK of lixivaptan following a single 100 mg oral dose of lixivaptan was evaluated in subjects with end-stage renal disease (ESRD) and control subjects with normal renal function. Pharmacodynamic (PD) evaluations, including vasopressin concentration, serum sodium concentration, urine volume, and urine osmolality were assessed.
# [2] = molecular target: T1, vasopressin V2 receptor (Homo sapiens, UniProt P30518); test: In-clinic pharmacokinetic study: spot urine osmolality after twice daily lixivaptan; format: in vivo
# T1 construct: Lixivaptan antagonizes the effects of vasopressin that are mediated by the V2 receptor; from tissue; host or cells: living human subjects (in vivo clinical studies); the receptor is the subjects' own and no tissue was isolated
# Protocol: Subjects received lixivaptan at total daily doses of 100 mg, 200 mg, or 400 mg (administered as 50, 100, and 200 mg Q12H). […] There were to be approximately 20 subjects enrolled per dose level. An approximately equal number of males and females were enrolled at each dose level such that neither gender was represented by fewer than 8 subjects. The starting date for each cohort subjects was staggered by 7 days for logistical purposes. Screening evaluations were performed within 28 days prior to Day 1.
# The following doses of lixivaptan were administered to subjects in this study: (a) Lixivaptan 100 mg, administered as 50 mg [1×50 mg capsule] every 12 hours×15 doses; (b) lixivaptan 200 mg, administered as 100 mg [2×50 mg capsules] every 12 hours×15 doses; and (c) Lixivaptan 400 mg, administered as 200 mg [4×50 mg capsules] every 12 hours×15 doses.
# Prior to the morning doses of lixivaptan on Days 1 and 8, subjects fasted for approximately 10 hours prior to lixivaptan administration and 4 hours after lixivaptan administration. All other doses were administered under fasting conditions, either 2 hours before or 2 hours after meals. The study medication was administered with 240 milliliters (mL) room temperature water. Subjects were not to receive any oral fluids, other than those used to administer the dose, for 1 hour before and 1 hour after dose administration. Subjects remained sitting or semi-supine, except to void, for 6 hours following the first two doses. While in the clinic, the subjects refrained from strenuous physical activity.
# Spot urine collections for urine osmolality determinations were obtained during the clinic stay and at the end of study (EOS).
# Spot urine osmolality was evaluated at different times during the day.
# [3] = Measured Log P; format: physicochemical
# T1 sequence (P30518 whole entry): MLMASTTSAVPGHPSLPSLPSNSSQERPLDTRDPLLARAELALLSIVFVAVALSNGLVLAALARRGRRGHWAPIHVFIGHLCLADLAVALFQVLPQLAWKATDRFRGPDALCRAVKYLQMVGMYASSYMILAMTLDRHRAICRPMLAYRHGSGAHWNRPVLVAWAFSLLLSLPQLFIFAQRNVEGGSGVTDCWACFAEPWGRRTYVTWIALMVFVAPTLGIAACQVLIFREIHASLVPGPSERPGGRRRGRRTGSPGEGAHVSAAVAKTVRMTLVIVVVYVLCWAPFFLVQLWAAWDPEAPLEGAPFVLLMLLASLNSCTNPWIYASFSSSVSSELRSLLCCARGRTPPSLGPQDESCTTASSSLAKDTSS
# Chain of V2 receptor (P30518 whole entry): as above
compound,measurement,setting,value
"Cc1ccc(F)cc1C(=O)Nc1ccc(C(=O)N2Cc3cccn3Cc3ccccc32)c(Cl)c1 [Lixivaptan, 5-fluoro-2-methyl-N-[4-(5H-pyrrolo[2,1-C] [1,4]benzodiazepin-10(11H)-ylcarbonyl)-3-chlorophenyl]benzamide]",Urine osmolality Change from baseline Mean,"[1]; 0 to 2 hours postdose, ESRD",−109.0 mosmol/kg
same,Urine osmolality Observed Mean,"[1]; 0 to 2 hours postdose, ESRD, single 100 mg oral dose",216.5 mosmol/kg
same,Urine osmolality Change from baseline Mean,"[1]; 0 to 2 hours postdose, Normal",−398.5 mosmol/kg
same,Urine osmolality Observed Mean,"[1]; 0 to 2 hours postdose, Normal, single 100 mg oral dose",132.6 mosmol/kg
same,Urine osmolality Change from baseline Mean,"[1]; 2 to 4 hours postdose, ESRD",−108.7 mosmol/kg
same,Urine osmolality Observed Mean,"[1]; 2 to 4 hours postdose, ESRD",202.4 mosmol/kg
same,Urine osmolality Change from baseline Mean,"[1]; 2 to 4 hours postdose, Normal",−412.6 mosmol/kg
same,Urine osmolality Observed Mean,"[1]; 2 to 4 hours postdose, Normal",109.9 mosmol/kg
same,Urine osmolality Change from baseline Mean,"[1]; 4 to 8 hours postdose, ESRD",−118.3 mosmol/kg
same,Urine osmolality Observed Mean,"[1]; 4 to 8 hours postdose, ESRD",195.1 mosmol/kg
same,Urine osmolality Change from baseline Mean,"[1]; 4 to 8 hours postdose, Normal",−258.3 mosmol/kg
same,Urine osmolality Observed Mean,"[1]; 4 to 8 hours postdose, Normal",272.8 mosmol/kg
same,effect on change from baseline in urine osmolality,[1]; ESRD group,markedly reduced
same,Urine osmolality Observed Mean,"[1]; Predose, ESRD",311.1 mosmol/kg
same,Urine osmolality Observed Mean,"[1]; Predose, Normal",514.7 mosmol/kg
same,vasopressin levels,[1]; both renal function groups,elevations of vasopressin levels
same,urine output,[1]; normal group,increased urine output
same,% of subjects with full 24 hour suppression of Uosm to 300 mOsm/kg or lower,[2]; 50 mg lixivaptan twice daily,approximately 16%
same,Urine Osmolality Mean,"[2]; 100 mg as 50 mg Q12H, Day 1 Hour 1",250.9 mOsm/kg
same,Urine Osmolality Mean,"[2]; 100 mg as 50 mg Q12H, Day 1 Hour 2",79.8 mOsm/kg
same,Urine Osmolality Mean,"[2]; 100 mg as 50 mg Q12H, Day 1 Hour 4",150.6 mOsm/kg
same,Urine Osmolality Mean,"[2]; 100 mg as 50 mg Q12H, Day 1 Hour 12",378.7 mOsm/kg
same,Urine Osmolality Mean,"[2]; 100 mg as 50 mg Q12H, Day 8 Hour 0",464.7 mOsm/kg
same,Urine Osmolality Mean,"[2]; 100 mg as 50 mg Q12H, Day 8 Hour 1",222.5 mOsm/kg
same,Urine Osmolality Mean,"[2]; 100 mg as 50 mg Q12H, Day 8 Hour 2",139.1 mOsm/kg
same,Urine Osmolality Mean,"[2]; 100 mg as 50 mg Q12H, Day 8 Hour 4",274.3 mOsm/kg
same,Urine Osmolality Mean,"[2]; 100 mg as 50 mg Q12H, Day 8 Hour 12",447.4 mOsm/kg
same,Urine Osmolality Mean,"[2]; 100 mg as 50 mg Q12H, Day 9 Hour 24 after dosing",564.7 mOsm/kg
same,Urine Osmolality Mean,"[2]; 100 mg as 50 mg Q12H, EOS (end of study, Day 29)",805.5 mOsm/kg
same,% of subjects with full 24 hour suppression of Uosm to 300 mOsm/kg or lower,[2]; 100 mg twice daily,approximately 46%
same,Urine Osmolality Mean,"[2]; 200 mg as 100 mg Q12H, Day 1 Hour 1",285.9 mOsm/kg
same,Urine Osmolality Mean,"[2]; 200 mg as 100 mg Q12H, Day 1 Hour 2",76.9 mOsm/kg
same,Urine Osmolality Mean,"[2]; 200 mg as 100 mg Q12H, Day 1 Hour 4",136.5 mOsm/kg
same,Urine Osmolality Mean,"[2]; 200 mg as 100 mg Q12H, Day 1 Hour 12",369.9 mOsm/kg
same,Urine Osmolality Mean,"[2]; 200 mg as 100 mg Q12H, Day 8 Hour 0",323.6 mOsm/kg
same,Urine Osmolality Mean,"[2]; 200 mg as 100 mg Q12H, Day 8 Hour 1",156.7 mOsm/kg
same,Urine Osmolality Mean,"[2]; 200 mg as 100 mg Q12H, Day 8 Hour 2",93.9 mOsm/kg
same,Urine Osmolality Mean,"[2]; 200 mg as 100 mg Q12H, Day 8 Hour 4",186.7 mOsm/kg
same,Urine Osmolality Mean,"[2]; 200 mg as 100 mg Q12H, Day 8 Hour 12",334.7 mOsm/kg
same,Urine Osmolality Mean,"[2]; 200 mg as 100 mg Q12H, Day 9 Hour 24 after dosing",465.9 mOsm/kg
same,Urine Osmolality Mean,"[2]; 200 mg as 100 mg Q12H, EOS (end of study, Day 29)",694.1 mOsm/kg
same,% of subjects with full 24 hour suppression of Uosm to 300 mOsm/kg or lower (% responders),[2]; 200 mg twice daily,approximately 78%
same,Urine Osmolality Mean,"[2]; 400 mg as 200 mg Q12H, Day 1 Hour 1",237.4 mOsm/kg
same,Urine Osmolality Mean,"[2]; 400 mg as 200 mg Q12H, Day 1 Hour 2",74.5 mOsm/kg
same,Urine Osmolality Mean,"[2]; 400 mg as 200 mg Q12H, Day 1 Hour 4",91.0 mOsm/kg
same,Urine Osmolality Mean,"[2]; 400 mg as 200 mg Q12H, Day 1 Hour 12",294.1 mOsm/kg
same,Urine Osmolality Mean,"[2]; 400 mg as 200 mg Q12H, Day 8 Hour 0",231.0 mOsm/kg
same,Urine Osmolality Mean,"[2]; 400 mg as 200 mg Q12H, Day 8 Hour 1",106.9 mOsm/kg
same,Urine Osmolality Mean,"[2]; 400 mg as 200 mg Q12H, Day 8 Hour 2",82.3 mOsm/kg
same,Urine Osmolality Mean,"[2]; 400 mg as 200 mg Q12H, Day 8 Hour 4",139.1 mOsm/kg
same,Urine Osmolality Mean,"[2]; 400 mg as 200 mg Q12H, Day 8 Hour 12",219.5 mOsm/kg
same,Urine Osmolality Mean,"[2]; 400 mg as 200 mg Q12H, Day 9 Hour 24 after dosing",390.3 mOsm/kg
same,Urine Osmolality Mean,"[2]; 400 mg as 200 mg Q12H, EOS (end of study, Day 29)",704.8 mOsm/kg
same,time of mean maximal reduction of urine osmolality,"[2]; after first dose on Day 1 and Day 8, regardless of the dose",2 h
same,Urine Osmolality Mean,"[2]; healthy subjects, 100 mg as 50 mg Q12H, Day 1 Hour 0 (baseline)",587.8 mOsm/kg
same,Urine Osmolality Mean,"[2]; healthy subjects, 200 mg as 100 mg Q12H, Day 1 Hour 0 (baseline)",602.7 mOsm/kg
same,Urine Osmolality Mean,"[2]; healthy subjects, 400 mg as 200 mg Q12H, Day 1 Hour 0 (baseline)",600.1 mOsm/kg
same,logP,[3],1
